Laboratory results taken from publication PMC12383145, “Fluorescent Peptides Internalize HeLa Cells and Kill Multidrug-Resistant Clinical Bacterial Isolates” (Antibiotics, 2025).
Converted amounts (≈) assume the structure as drawn. “And” between values parts separate entries of the source, which are not always exact repeats. Identical values can stand only once. Like-named read-outs stand apart in the source and are kept apart here. Non-standard residues stand in square brackets, D forms with d. Residues, ends and D or L forms follow the SMILES beside them. 2Abz = Nc1ccccc1C(=O)O

Key:
Type in all cases: cell-based
[1] = tested on: E. faecalis clinical isolate 213; conditions: E. faecalis clinical isolate 213
Procedure: (§1) E. coli isolates 1004 (susceptible), 129797 (resistant), and 301755 (MDR) were selected for evaluation. Isolate 1004 was sensitive to all antibiotics tested. […] These findings identify it as a multidrug-resistant (MDR) strain and an extended-spectrum beta-lactamase (ESBL)-producing bacterium. For S. aureus, isolates 109095, 117719, and 124653 were evaluated. All three were resistant to penicillin, indicating beta-lactamase production mediated by the blaZ gene. Studies have shown that up to 90% of S. aureus isolates worldwide are penicillin-resistant, which implies that this antibiotic is ineffective in infections caused by this pathogen. […] Isolate 124653 was resistant to penicillin, tetracycline, and erythromycin, with the latter belonging to the group of macrolides, antibiotics that inhibit protein synthesis through interaction with the 50S […] subunit. For E. faecalis three isolates were selected: strains 213 (sensitive to all the antibiotics tested), strain 82 (resistant to streptomycin), and strain 179 (resistant to gentamicin). These clinical isolates were selected to assess the antimicrobial activity of the peptide RWQWRWQWR and its analogues conjugated to fluorescent molecules in strains against strains with susceptibility profiles.
(§2) The analysis of synthesized peptides in ATCC reference strains and susceptible, resistant, and multidrug-resistant (MDR) clinical isolates was performed. The clinical isolates were obtained from the National Cancer Institute collection and were previously identified and antibiogrammed using the VITEK system. Additionally, the strains were characterized by MALDI-TOF. The strains were re-primed onto trypticase soy agar and subsequently preserved in Brain–Heart Infusion (BHI) broth containing 20% glycerol. For the MIC and MBC assays, the strains were reactivated and cultured in BHI until they reached their exponential growth phase.
(§3) The minimum inhibitory concentration (MIC) of the peptides was determined by the broth microdilution technique, according to the Clinical and Laboratory Standards Institute (CLSI) guidelines, as previously described. Briefly, bacterial strains were incubated in BHI broth at 37 °C until they reached the exponential growth phase, and inocula were adjusted to 5 × 10^6 CFU/mL using calibration curves. Serial dilutions of the peptides to be evaluated in 96-well plates were made in 90 µL of Mueller Hinton broth at concentrations ranging from 200 to 6.25 µg/mL, and 10 µL of the inoculum adjusted to 5 × 10^6 CFU/mL was added. Finally, the plates were incubated at 37 °C for 24 h, and the absorbance at 620 nm was read. As a negative control, CMH, distilled water, and 10 µL of inoculum were used; for the positive control, vancomycin was used for Gram-positive strains and ciprofloxacin for Gram-negative strains at the MICs dictated by the CLSI; as a technical control, CMH with peptone water was used, and for the growth control, CMH was used with 10 µL of inoculum.
(§4) To determine the minimum bactericidal concentration (MBC), the 96-well plates where the MIC was determined were used as a starting point. From these, an aliquot of the controls and those wells where no apparent bacterial growth was observed were spotted onto trypticase soy agar plates. The plates were incubated at 37 °C for 24 h, and the reading was taken, identifying the lowest concentration of the peptide where there was no bacterial growth as the MBC.

[2] = tested on: E. coli clinical isolate 129797 (resistant); conditions: E. coli clinical isolate 129797
Procedure: as §1, §2, §3, §4

[3] = tested on: E. faecalis clinical isolate 82; conditions: E. faecalis clinical isolate 82
Procedure: as §1, §2, §3, §4

[4] = tested on: S. aureus clinical isolate 109095; conditions: S. aureus clinical isolate 109095
Procedure: as §1, §2, §3, §4

[5] = tested on: E. coli clinical isolate 1004 (susceptible); conditions: E. coli clinical isolate 1004
Procedure: as §1, §2, §3, §4

[6] = tested on: E. coli clinical isolate 301755 (MDR); conditions: E. coli clinical isolate 301755
Procedure: as §1, §2, §3, §4

[7] = tested on: E. faecalis clinical isolate 179; conditions: E. faecalis clinical isolate 179
Procedure: as §1, §2, §3, §4

[8] = tested on: S. aureus clinical isolate 124653; conditions: S. aureus clinical isolate 124653
Procedure: as §1, §2, §3, §4

[9] = tested on: clinical isolates of E. coli; conditions: stated for all three E. coli clinical isolates
Procedure: as §1, §2, §3, §4

Hemolysis assay = assay: Hemolysis assay
Procedure: Whole blood was collected into EDTA tubes and centrifuged at 2500 rpm for 10 min. The plasma and buffy coat were removed, and the erythrocytes were washed three times with 0.9% saline to yield a 4% cell suspension. In 96-well plates, 100 µL of peptide dilutions (6.25–200 µg/mL) were prepared in triplicate, and 100 µL of the erythrocyte suspension was added (final hematocrit 2%). Plates were incubated at 37 °C for 2 h, and then centrifuged again at 2500 rpm for 10 min. A 100 µL aliquot of the supernatant was transferred to a fresh plate, and absorbance was measured at 450 nm. Saline and 1× Triton X-100 served as the negative and positive controls, respectively. Hemolysis (%) was calculated as follows: %hemolysis=treatment absorbance−saline absorbance/1×triton absorbance−saline absorbance

P. aeruginosa ATCC 27853 = conditions: P. aeruginosa ATCC 27853
Procedure: as §3, §4

E. faecalis ATCC 29212 = conditions: E. faecalis ATCC 29212
Procedure: as §3, §4

[10] = tested on: K. pneumoniae ATCC 700603; conditions: K. pneumoniae ATCC 700603
Procedure: as §3, §4

E. coli ATCC 25922 = conditions: E. coli ATCC 25922
Procedure: as §3, §4

[11] = tested on: S. aureus clinical isolate 11719; conditions: S. aureus clinical isolate 11719
[12] = MTT cytotoxicity assay in HeLa cells; conditions: human; HeLa cells, MTT; read-out: Cytotoxic Activity (IC50)
Procedure: MTT assays were conducted in HeLa cells to evaluate the effect of fluorescent probe incorporation on the in vitro cytotoxic activity of the parent non-conjugated peptides. The cytotoxic effect of peptides 1, Abz-1 RhB-1, 2, and RhB-2 in HeLa cells was peptide concentration-dependent, with the highest anticancer activity observed at 200 µg/mL. Incorporation of 2-Abz and RhB at the N-terminal end reduced cytotoxic activity, while the binding of 2-Abz at the C-terminal end or FAM at the N-terminal end drastically diminished anticancer activity (Table 4).

SMILES: N=C(N)NCCC[C@H](NC(=O)[C@H](Cc1c[nH]c2ccccc12)NC(=O)[C@H](CCC(N)=O)NC(=O)[C@H](Cc1c[nH]c2ccccc12)NC(=O)[C@H](CCCNC(=N)N)NC(=O)[C@H](Cc1c[nH]c2ccccc12)NC(=O)[C@H](CCC(N)=O)NC(=O)[C@H](Cc1c[nH]c2ccccc12)NC(=O)[C@@H](N)CCCNC(=N)N)C(=O)Nc1ccccc1C(N)=O [1-Abz, RWQWRWQWR-(2-Abz)] (H-RWQWRWQWR[2Abz]-NH2)
- Minimal bactericidal concentration (MBC) [1]: > 125 µM
- Minimal inhibitory concentration (MIC) [1]: > 125 µM
- Minimal bactericidal concentration (MBC) [2]: 125 µM (≈ 201 µg/mL)
- Minimal inhibitory concentration (MIC) [2]: 62 µM (≈ 99.6 µg/mL)
- Minimal bactericidal concentration (MBC) [3]: > 125 µM
- Minimal inhibitory concentration (MIC) [3]: > 125 µM
- Minimal bactericidal concentration (MBC) [4]: 125 µM (≈ 201 µg/mL)
- Minimal inhibitory concentration (MIC) [4]: 125 µM (≈ 201 µg/mL)
- Minimal bactericidal concentration (MBC) [5]: 125 µM (≈ 201 µg/mL)
- Minimal inhibitory concentration (MIC) [5]: 62 µM (≈ 99.6 µg/mL)
- Minimal bactericidal concentration (MBC) [6]: 125 µM (≈ 201 µg/mL)
- Minimal inhibitory concentration (MIC) [6]: 62 µM (≈ 99.6 µg/mL)
- Minimal bactericidal concentration (MBC) [7]: > 125 µM
- Minimal inhibitory concentration (MIC) [7]: > 125 µM
- Minimal bactericidal concentration (MBC) [8]: > 125 µM
- Minimal inhibitory concentration (MIC) [8]: 125 µM (≈ 201 µg/mL)
- MBC [9]: 125 µM (≈ 201 µg/mL)
- hemolysis at 2 h (Hemolysis assay; at 200 µg/mL (highest tested concentration), 2 h, 37 °C, read-out: hemolysis): 1.5%
- hemolysis at 2 h (Hemolysis assay; at the lowest MIC concentration, read-out: Percentage of hemolysis): 0.9%
- Minimal bactericidal concentration (MBC) (P. aeruginosa ATCC 27853): > 125 µM
- Minimal inhibitory concentration (MIC) (P. aeruginosa ATCC 27853): 125 µM (≈ 201 µg/mL)
- Minimal bactericidal concentration (MBC) (E. faecalis ATCC 29212): > 125 µM
- Minimal inhibitory concentration (MIC) (E. faecalis ATCC 29212): 125 µM (≈ 201 µg/mL)
- Minimal bactericidal concentration (MBC) [10]: 125 µM (≈ 201 µg/mL)
- Minimal inhibitory concentration (MIC) [10]: 125 µM (≈ 201 µg/mL)
- Minimal bactericidal concentration (MBC) (E. coli ATCC 25922): 62 µM (≈ 99.6 µg/mL)
- Minimal inhibitory concentration (MIC) (E. coli ATCC 25922): 62 µM (≈ 99.6 µg/mL)
- Minimal bactericidal concentration (MBC) [11]: 125 µM (≈ 201 µg/mL)
- Minimal inhibitory concentration (MIC) [11]: 125 µM (≈ 201 µg/mL)
- IC50 [12]: > 200 µg/mL and > 125 µM
